Test results: patent publication US10774051B2, “6-membered heterocyclic derivatives and pharmaceutical composition comprising the same” (Shionogi & Co., Ltd., priority 2015, dated 2020)

Biological target: human P2X7 receptor (Homo sapiens, UniProt Q99572, R270H/Y155H)
Assay: Evaluation of human P2X7 receptor inhibitory activity (Yo-Pro uptake, BzATP stimulation, FLIPR TETRA)
Assay type: cell-based
Conditions: 1321N1 cells stably expressing human P2X7 receptor; BzATP stimulation, Yo-Pro uptake; read-out: IC50 (antagonistic activity for the human P2X7 receptor)
Method in brief: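 1321N1 cells stably expressing human P2X7 (T606C/G952A SNP variant), in HBSS buffer pH 7.4-7.5 with Yo-Pro, stimulated with BzATP; compound added 8 min after agonist. Fluorescence followed for 20 min on FLIPR; max-minus-min change gave % inhibition, IC50 by logistic fit.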

SMILES | IC50
COc1cn(Cc2cc(F)cc(F)c2)c(Nc2cccc3c(=O)[nH]ccc23)nc1=O [Compound I-0652] | 34 nM
COc1cn(Cc2cc(F)cc(Cl)c2)c(Nc2cccc3sccc23)nc1=O [Compound I-0670] | 20 nM
COc1ccccc1Nc1nc(=O)c(OC)cn1Cc1ccc(F)c(F)c1 [Compound I-0675] | 190 nM
COc1cc(Cn2cc(OC)c(=O)nc2Nc2cccc(Cl)c2C)ccc1F [Compound I-0698] | 100 nM
O=c1nc(Nc2cccc3c(=O)[nH]ccc23)n(Cc2cc(F)cc(F)c2)cc1F [Compound I-0703] | 16 nM
Cc1cc(Nc2nc(=O)c(Cl)cn2Cc2cc(F)cc(F)c2)c2cc[nH]c2c1 [Compound I-0706] | 15 nM

Same assay, conditions: antagonistic activity for the human P2X7 receptor; read-out: IC50

SMILES | IC50
COc1cccc(Nc2nc(=O)c(OC)cn2Cc2cccc(F)c2)c1C [Compound I-0642] | < 10 nM
COc1cn(Cc2cccc(F)c2)c(Nc2cccc(C)c2Cl)nc1=O [Compound I-0643] | 10 to 100 nM
COc1cn(Cc2cccc(F)c2)c(Nc2cc(C)ccc2C)nc1=O [Compound I-0644] | 10 to 100 nM
COc1cn(Cc2ccc(F)c(F)c2)c(Nc2cc(C)cc3[nH]ccc23)nc1=O [Compound I-0645] | 10 to 100 nM
COc1cn(Cc2ccc(F)c(F)c2)c(Nc2cc(N3CCCC3=O)ccc2C)nc1=O [Compound I-0646] | 10 to 100 nM
COc1cn(Cc2cc(F)cc(Cl)c2)c(Nc2cc(N3CCCC3=O)ccc2C)nc1=O [Compound I-0647] | 10 to 100 nM
COc1cn(Cc2cc(F)cc(F)c2)c(Nc2cc(N3CCCC3=O)ccc2C)nc1=O [Compound I-0648] | 10 to 100 nM
COc1cn(Cc2cc(F)cc(Cl)c2)c(Nc2cc(C)cc3[nH]ccc23)nc1=O [Compound I-0649] | 10 to 100 nM
COc1cn(Cc2cc(F)cc(F)c2)c(Nc2cc(C)cc3[nH]ccc23)nc1=O [Compound I-0650] | 10 to 100 nM
COc1cn(Cc2cc(F)cc(Cl)c2)c(Nc2cccc3c(=O)[nH]ccc23)nc1=O [Compound I-0651] | 10 to 100 nM
COc1cn(Cc2ccc(F)c(F)c2)c(Nc2cc(-n3cccc3)ccc2C)nc1=O [Compound I-0653] | < 10 nM
COc1cn(Cc2cc(F)cc(Cl)c2)c(Nc2cc(-n3cccc3)ccc2C)nc1=O [Compound I-0654] | 10 to 100 nM
COc1cn(Cc2cc(F)cc(F)c2)c(Nc2cc(-n3cccc3)ccc2C)nc1=O [Compound I-0655] | 10 to 100 nM
CCc1cc(Br)ccc1Nc1nc(=O)c(OC)cn1Cc1cc(F)cc(Cl)c1 [Compound I-0656] | 10 to 100 nM
CCc1ccc(OC)cc1Nc1nc(=O)c(OC)cn1Cc1cc(F)cc(Cl)c1 [Compound I-0657] | 10 to 100 nM
COc1cn(Cc2ccccc2)c(Nc2cc(-c3ccc(C)o3)ccc2C)nc1=O [Compound I-0658] | 10 to 100 nM
COc1cn(Cc2ccc(F)c(Cl)c2)c(Nc2cc(-c3ccc(C)o3)ccc2C)nc1=O [Compound I-0659] | 10 to 100 nM
COc1cn(Cc2ccc(F)cc2)c(Nc2cccc(OC(F)F)c2C)nc1=O [Compound I-0660] | 10 to 100 nM
COc1cccc(Nc2nc(=O)c(OC)cn2Cc2ccc(F)cc2)c1C [Compound I-0661] | < 10 nM
COc1cn(Cc2ccc(F)cc2)c(Nc2cccc(C)c2Cl)nc1=O [Compound I-0662] | 10 to 100 nM
COc1cn(Cc2ccccc2)c(Nc2cc(-c3cnccn3)ccc2C)nc1=O [Compound I-0663] | 10 to 100 nM
COc1cn(Cc2ccc(F)c(Cl)c2)c(Nc2cc(-c3cnccn3)ccc2C)nc1=O [Compound I-0664] | < 10 nM
COc1cn(Cc2ccc(F)c(F)c2)c(Nc2cc3sc(C)nc3cc2C)nc1=O [Compound I-0665] | < 10 nM
COc1cn(Cc2cc(F)cc(Cl)c2)c(Nc2cc(Cl)c(Cl)cc2C)nc1=O [Compound I-0666] | 100 to 500 nM
COc1cn(Cc2cc(F)cc(Cl)c2)c(Nc2cc(-c3nnco3)ccc2C)nc1=O [Compound I-0667] | 10 to 100 nM

SMILES | IC50
COc1cn(Cc2cc(F)cc(Cl)c2)c(Nc2cc(-c3ncco3)ccc2C)nc1=O [Compound I-0668] | 10 to 100 nM
COc1cn(Cc2cc(F)cc(Cl)c2)c(Nc2cc3sc(C)nc3cc2C)nc1=O [Compound I-0669] | 10 to 100 nM
COc1cc(C)c(Nc2nc(=O)c(OC)cn2Cc2cccc(Cl)c2)cc1Cl [Compound I-0671] | < 10 nM
COc1cc(C)c(Nc2nc(=O)c(OC)cn2Cc2cc(F)cc(Cl)c2)cc1Cl [Compound I-0672] | < 10 nM
CCc1ccc(OC)cc1Nc1nc(=O)c(OC)cn1Cc1cc(F)c(F)c(F)c1 [Compound I-0673] | < 10 nM
CCc1ccccc1Nc1nc(=O)c(OC)cn1Cc1ccc(F)c(F)c1 [Compound I-0674] | 10 to 100 nM
CCOc1ccc(Nc2nc(=O)c(OC)cn2Cc2ccccc2)c(C)c1 [Compound I-0676] | 100 to 500 nM
CCOc1ccc(Nc2nc(=O)c(OC)cn2Cc2cccc(Cl)c2)c(C)c1 [Compound I-0677] | 10 to 100 nM
CCOc1ccc(Nc2nc(=O)c(OC)cn2Cc2ccc(F)c(F)c2)c(C)c1 [Compound I-0678] | < 10 nM
CCOc1ccc(Nc2nc(=O)c(OC)cn2Cc2ccc(F)c(Cl)c2)c(C)c1 [Compound I-0679] | < 10 nM
CCOc1ccc(Nc2nc(=O)c(OC)cn2Cc2cc(F)cc(F)c2)c(C)c1 [Compound I-0680] | 10 to 100 nM
CCOc1ccc(Nc2nc(=O)c(OC)cn2Cc2cc(F)cc(Cl)c2)c(C)c1 [Compound I-0681] | 10 to 100 nM
COc1cn(Cc2cc(F)cc(Cl)c2)c(Nc2cccc(SC)c2C)nc1=O [Compound I-0682] | 10 to 100 nM
COc1cccc(Nc2nc(=O)c(OC)cn2Cc2ccc(F)c(Cl)c2)c1Cl [Compound I-0683] | < 10 nM
COc1cn(Cc2cc(F)cc(F)c2)c(Nc2cc(-c3cnccn3)ccc2C)nc1=O [Compound I-0684] | 10 to 100 nM
COc1cn(Cc2ccc(F)c(F)c2)c(Nc2ccccc2C)nc1=O [Compound I-0685] | 10 to 100 nM
COc1cc(Nc2nc(=O)c(OC)cn2Cc2ccc(F)c(Cl)c2)c(C)cc1F [Compound I-0686] | < 10 nM
CCc1cc2c(cc1Nc1nc(=O)c(OC)cn1Cc1ccccc1)OCO2 [Compound I-0687] | 10 to 100 nM
CCc1cc2c(cc1Nc1nc(=O)c(OC)cn1Cc1ccc(F)c(Cl)c1)OCO2 [Compound I-0688] | < 10 nM
COc1cn(Cc2ccc(F)c(F)c2)c(Nc2cccc3c(=O)[nH]ccc23)nc1=O [Compound I-0689] | 10 to 100 nM
COc1cn(Cc2ccccc2)c(Nc2cc(-c3cccnc3)ccc2C)nc1=O [Compound I-0690] | 10 to 100 nM
COc1cn(Cc2ccccc2)c(Nc2cc(OC(F)(F)F)ccc2C)nc1=O [Compound I-0691] | 100 to 500 nM
COc1cn(Cc2ccc(F)c(Cl)c2)c(Nc2cc(OC(F)(F)F)ccc2C)nc1=O [Compound I-0692] | 10 to 100 nM
COc1cn(Cc2ccc(F)c(F)c2)c(Nc2cc(OC(F)(F)F)ccc2C)nc1=O [Compound I-0693] | 10 to 100 nM
COc1cn(Cc2cc(F)cc(Cl)c2)c(Nc2cc(OC(F)(F)F)ccc2C)nc1=O [Compound I-0694] | 100 to 500 nM

SMILES | IC50
COc1cn(Cc2cc(F)cc(F)c2)c(Nc2cc(OC(F)(F)F)ccc2C)nc1=O [Compound I-0695] | 10 to 100 nM
COc1cn(Cc2ccc(F)c(Cl)c2)c(Nc2cc(-c3cccnc3)ccc2C)nc1=O [Compound I-0696] | < 10 nM
COc1cn(Cc2cc(F)c(F)c(F)c2)c(Nc2cc3sc(C)nc3cc2C)nc1=O [Compound I-0697] | < 10 nM
Cc1ccc(-c2nnco2)cc1Nc1nc(=O)c(Cl)cn1Cc1cc(F)cc(F)c1 [Compound I-0699] | < 10 nM
Cc1ccc(N2CCCC2=O)cc1Nc1nc(=O)c(F)cn1Cc1cc(F)cc(F)c1 [Compound I-0700] | < 10 nM
Cc1ccc(N2CCCC2=O)cc1Nc1nc(=O)c(Cl)cn1Cc1cc(F)cc(F)c1 [Compound I-0701] | < 10 nM
COc1cn(Cc2cc(F)c(F)c(F)c2)c(Nc2cccc(SC)c2C)nc1=O [Compound I-0704] | < 10 nM
Cc1cc(Nc2nc(=O)c(F)cn2Cc2cc(F)cc(F)c2)c2cc[nH]c2c1 [Compound I-0705] | < 10 nM
COc1cn(Cc2cc(F)c(F)c(F)c2)c(Nc2cc3c(cc2C)OCCO3)nc1=O [Compound I-0708] | < 10 nM
COc1cn(Cc2cc(F)cc(F)c2)c(Nc2cc3c(cc2C)OCCO3)nc1=O [Compound I-0709] | < 10 nM
COc1cn(Cc2cc(F)cc(Cl)c2)c(Nc2cc3c(cc2C)OCCO3)nc1=O [Compound I-0710] | 10 to 100 nM
COc1cn(Cc2ccccc2)c(Nc2cc3c(cc2C)OC(F)(F)O3)nc1=O [Compound I-0711] | 100 to 500 nM
COc1cn(Cc2cc(F)c(F)c(F)c2)c(Nc2cc(C)c(F)cc2C)nc1=O [Compound I-0712] | < 10 nM
CCOc1cn(Cc2ccccc2)c(Nc2cc(C)c(OC)cc2C)nc1=O [Compound I-0713] | < 10 nM
CCOc1cn(Cc2ccc(F)c(Cl)c2)c(Nc2cc(C)c(OC)cc2C)nc1=O [Compound I-0714] | < 10 nM
COc1cc(Nc2nc(=O)c(OC)cn2Cc2cc(F)c(F)c(F)c2)c(C)cc1C [Compound I-0715] | < 10 nM
CCOc1cn(Cc2ccc(F)c(Cl)c2)c(Nc2cc(C)cc(OC)c2C)nc1=O [Compound I-0716] | < 10 nM
CCOc1cn(Cc2ccccc2)c(Nc2cc(C)cc(OC)c2C)nc1=O [Compound I-0717] | < 10 nM
COc1cc(C)c(Nc2nc(=O)c(OC)cn2Cc2ccccc2)cc1F [Compound I-0718] | 10 to 100 nM
COc1cc(C)c(Nc2nc(=O)c(OC)cn2Cc2ccc(F)c(Cl)c2)cc1F [Compound I-0719] | < 10 nM
COc1cn(Cc2ccccc2)c(Nc2cc3c(cc2C)OCO3)nc1=O [Compound I-0720] | 10 to 100 nM
COc1cc(C)c(Nc2nc(=O)c(OC)cn2Cc2cc(F)cc(F)c2)cc1F [Compound I-0721] | < 10 nM
C=C(C)c1ccc(C)c(Nc2nc(=O)c(OC)cn2Cc2ccccc2)c1 [Compound I-0722] | 10 to 100 nM
